Assay results from US20250034165A1, “COMPOUND CONTAINING CYCLOALKYL OR HALOALKYL” (CHIA TAI TIANQING PHARMACEUTICAL GROUP CO., LTD., priority 2021, published 2025).

Columns and labels:
[1] = target: EGFR (d746-750/T790M/C797S) (Homo sapiens (Human), UniProt P00533, C797S/DEL746-750/T790M); assay: Inhibitory activity for EGFR (d746-750/T790M/C797S) kinase; type: biochemical; conditions: ATP 5 μM; read-out: EGFR(d19/T790M/C797S) (IC50)
Procedure: 1.5 Screening for Inhibitory Activity for EGFR (d746-750/T790M/C797S) Kinase
(§1) A 50 ng/μL EGFR (d746-750/T790M/C797S, BPS) stock solution was diluted with a kinase buffer (50 mM HEPES, 10 mM MgCl2, 2 mM DTT, 1 mM EGTA, 0.01% Tween 20), and 6 μL of 1.67× working solution at 0.05 ng/μL (final concentration: 0.03 ng/μL) was added to each well. Different compounds dissolved in DMSO were added to the wells using a nanoliter pipettor, resulting in the final concentrations of the compounds of 10 nM to 0.0024 nM (4-fold gradient for 7 concentrations in total), and blank control wells (without enzyme) and negative control wells (with enzyme, plus vehicle DMSO) were set, 2 replicate wells for each concentration. After enzyme was reacted with the compound or vehicle for 30 min, 5×ATP at 25 μM (final concentration: 5 μM, Sigma) prepared with a kinase buffer was mixed with 5× substrate at 0.5 μM (final concentration: 0.1 μM, ULight-poly GT, PerkinElmer) at a ratio of 1:1 (v:v), and the mixture was added to each well at 4 μL/well. After being sealed with a film, the plate was incubated at room temperature for 2 h, and then 5 μL of 4×EDTA at 40 mM (final concentration: 10 mM) was added to each well. After the plate was incubated for 5 min at room temperature, 5 μL of 4× detection reagent at 8 nM (final concentration: 2 nM, Eu-anti-phospho-tyrosine antibody, PerkinElmer) was added to each well. After being incubated at room temperature for 1 h, the plate was read using a PerkinElmer Envision multi-mode microplate reader (excitation: 320 nm, emission: 665 nm), and IC50 was calculated by four-parameter fitting.

[2] = tested on: BAF3-EGFR (L858R/T790M/C797S) cells; assay: Inhibition of proliferation of BAF3-EGFR (L858R/T790M/C797S) cells, CCK-8; type: cell-based; conditions: Ba/F3 EGFR, 72 h, read-out: BAF3(EGFR T790M L858R C797S) cell inhibitory activity IC50
Procedure: A flask of EGFR (L858R/T790M/C797S) cells in the logarithmic growth phase and good conditions was taken, and the cells were collected and added to a centrifuge tube. 20 μL of cells were taken and counted, and the required number of cells (mL) was pipetted and centrifuged at 1200 rpm for 3 min. The supernatant was discarded, and an appropriate amount of plating medium (RPMI medium+10% FBS) was added to adjust the cell density to 1.5×10^5 cells/mL. The cells were seeded on a 96-well plate at 100 μL/well using a multi-channel pipette and cultured in a cell incubator at 37° C., 5% CO2 with saturated humidity. After overnight incubation, compounds were loaded using a nanoliter pipettor, 2 duplicate wells were set for each concentration, and cells without compound added were used as negative controls.
Inhibition rate (%)=(mean value of negative control group-mean value of experimental group)/(mean value of negative control group−mean value of blank group)×100%.
A dose-response curve was fitted by four-parameter analysis, with the logarithm of compound concentration serving as abscissa and inhibition rate serving as ordinate, such that IC50 was calculated.

[3] = target: EGFR (d746-750 (d19)/T790M) (Homo sapiens (Human), UniProt P00533, DEL746-750/T790M); assay: Inhibitory activity for EGFR (d746-750 (d19)/T790M) kinase; type: biochemical; conditions: ATP 5 μM
Procedure: 1.3 Screening for Inhibitory Activity for EGFR (d746-750 (d19)/T790M) Kinase
as §1, with “(d746-750/T790M, Carna)” for “(d746-750/T790M/C797S, BPS)”, “0.005” for “0.05”, “0.003” for “0.03”

Sequence of EGFR (d746-750/T790M/C797S) (P00533 other isoform, or with tags, fused parts or gaps T790M/C797S/del 1-694/del 746-750 limits assumed): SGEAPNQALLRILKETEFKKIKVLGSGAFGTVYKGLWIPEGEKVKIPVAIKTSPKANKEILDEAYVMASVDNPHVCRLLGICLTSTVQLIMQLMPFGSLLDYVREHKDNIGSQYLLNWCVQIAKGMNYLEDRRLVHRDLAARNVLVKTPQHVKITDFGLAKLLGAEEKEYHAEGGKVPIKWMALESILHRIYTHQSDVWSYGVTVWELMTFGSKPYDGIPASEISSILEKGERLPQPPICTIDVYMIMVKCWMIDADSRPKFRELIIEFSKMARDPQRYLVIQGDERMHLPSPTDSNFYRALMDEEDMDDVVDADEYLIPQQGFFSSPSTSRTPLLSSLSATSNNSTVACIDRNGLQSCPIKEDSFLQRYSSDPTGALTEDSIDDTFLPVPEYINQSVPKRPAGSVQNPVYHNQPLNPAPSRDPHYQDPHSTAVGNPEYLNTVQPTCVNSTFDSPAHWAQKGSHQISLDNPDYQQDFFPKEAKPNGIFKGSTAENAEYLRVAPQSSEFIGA
Sequence of EGFR (d746-750 (d19)/T790M) (P00533 other isoform, or with tags, fused parts or gaps T790M/del 1-668/del 746-750 limits assumed): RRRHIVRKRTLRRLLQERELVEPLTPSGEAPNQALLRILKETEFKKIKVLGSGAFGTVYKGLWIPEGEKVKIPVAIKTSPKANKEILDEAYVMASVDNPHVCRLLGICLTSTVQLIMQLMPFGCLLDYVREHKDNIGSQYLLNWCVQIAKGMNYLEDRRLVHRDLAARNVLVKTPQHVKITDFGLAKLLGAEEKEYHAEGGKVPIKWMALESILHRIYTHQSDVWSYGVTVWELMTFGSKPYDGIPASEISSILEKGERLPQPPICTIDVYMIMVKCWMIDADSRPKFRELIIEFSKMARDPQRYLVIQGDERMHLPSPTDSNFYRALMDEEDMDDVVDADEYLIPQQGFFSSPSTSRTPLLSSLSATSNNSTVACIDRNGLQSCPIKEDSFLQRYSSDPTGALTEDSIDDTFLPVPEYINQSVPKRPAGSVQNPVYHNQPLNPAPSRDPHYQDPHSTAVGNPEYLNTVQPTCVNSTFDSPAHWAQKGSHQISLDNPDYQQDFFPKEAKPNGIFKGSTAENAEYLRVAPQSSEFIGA

Row | SMILES | IC50 [1] [nM] | IC50 [2] [nM] | IC50 [3] [nM]
1 | Cc1cc2cc(n1)-c1cnn(C)c1OCCC[C@@H](C1CC1)CN1/C(=N/C2=O)Nc2ccc(NC(=O)CCCN(C)C)cc21 [Example 113] | 0.066 |  | 
2 | Cc1cc2cc(n1)-c1cnn(C)c1OCCC[C@@H](C1CC1)CN1/C(=N/C2=O)Nc2ccc(N[C@@H](C)CN3CCCCC3)cc21 [Example 142] | 0.079 | < 5 | 
3 | Cc1cc2cc(n1)-c1cnn(C)c1OCCC[C@@H](C1CC1)CN1/C(=N/C2=O)Nc2cc(NC3CC(N(C)C)C3)ccc21 (some centres unmarked) [Example 93] |  |  | 0.11
4 | Cc1cc2cc(n1)-c1cnn(C)c1OCCC[C@@H](C1CC1)CN1/C(=N/C2=O)Nc2ccc(NC3CCCC3)cc21 [Example 87] | 0.318 |  | 0.058
5 | CNCCCNc1ccc2c(c1)N/C1=N\C(=O)c3cc(C)nc(c3)-c3cnn(C)c3OCCC[C@@H](C3CC3)CN12 [Example 49] | 0.039 |  | 0.03
6 | Cc1cc2cc(n1)-c1cnn(C3CC3)c1OCCC[C@@H](C)CN1/C(=N/C2=O)Nc2ccc(N3CC[C@H](O)C3)cc21 [Example 16] | 0.063 |  | 0.06
7 | Cc1cc2cc(n1)-c1cnn(C3CC3)c1OCCC[C@@H](C)CN1/C(=N/C2=O)Nc2cc(NC3CCN(C)CC3)ccc21 [Example 12] | 0.17 |  | 0.15
8 | CNCCCCNc1ccc2c(c1)N/C1=N\C(=O)c3cc(C)nc(c3)-c3cnn(C)c3OCCC[C@@H](C3CC3)CN12 [Example 52] | 0.028 | < 5 | 0.021
9 | Cc1cc2cc(n1)-c1cnn(C3CC3)c1OCCC[C@@H](C)CN1/C(=N/C2=O)Nc2cc(NCCN3CCOCC3)ccc21 [Example 5] | 0.074 |  | 0.05
10 | Cc1cc2cc(n1)-c1cnn(C)c1OCCC[C@@H](C1CC1)CN1/C(=N/C2=O)Nc2cc(NCCN3CCCCC3)ccc21 [Example 73] |  | < 5 | 
11 | Cc1cc2cc(n1)-c1cnn(C)c1OCCC[C@@H](C1CC1)CN1/C(=N/C2=O)Nc2cc(N[C@@H](C)CN3CCCCC3)ccc21 [Example 138] | 0.087 | < 5 | 
12 | Cc1cc2cc(n1)-c1cnn(C)c1OCCC[C@@H](C1CC1)CN1/C(=N/C2=O)Nc2cc(NCCCCN)ccc21 [Example 53] | 0.013 | < 5 | 0.0098
13 | Cc1cc2cc(n1)-c1cnn(C)c1OCCC[C@@H](C1CC1)CN1/C(=N/C2=O)Nc2cc(N[C@H](C)CN(C)C)ccc21 [Example 67] | 0.083 | < 5 | 
14 | Cc1cc2cc(n1)-c1cnn(C)c1OCCC[C@@H](C1CC1)CN1/C(=N/C2=O)Nc2ccc(N3CC[C@H](O)C3)cc21 [Example 21] | 0.059 |  | 0.032
15 | Cc1cc2cc(n1)-c1cnn(C)c1OCCC[C@@H](C1CC1)CN1/C(=N/C2=O)Nc2cc(NC3C(C)(C)OC3(C)C)ccc21 [Example 31] | 0.031 |  | 0.018
16 | Cc1cc2cc(n1)-c1cnn(C)c1OCCC[C@@H](C1CC1)CN1/C(=N/C2=O)Nc2cc(NCCCCN(C)C)ccc21 [Example 51] | 0.02 | < 5 | 0.013
17 | Cc1cc2cc(n1)-c1cnn(C3CC3)c1OCCC[C@@H](C)CN1/C(=N/C2=O)Nc2cc(N[C@@H]3CCOC3)ccc21 [Example 13] | 0.11 |  | 0.058

Row | SMILES | IC50 [1] [nM] | IC50 [2] [nM] | IC50 [3] [nM]
18 | [2H]C([2H])([2H])N(C[C@@H](C)Nc1ccc2c(c1)N1C[C@H](C3CC3)CCCOc3c(cnn3C)-c3cc(cc(C)n3)C(=O)/N=C/1N2)C([2H])([2H])[2H] [Example 145] |  | < 5 | 
19 | Cc1cc2cc(n1)-c1cnn(C3CC3)c1OCCC[C@@H](C)CN1/C(=N/C2=O)Nc2cc(NC[C@H]3COCCO3)ccc21 [Example 14] | 0.1 |  | 0.068
20 | Cc1cc2cc(n1)-c1cnn(C)c1OCCC[C@@H](C1CC1)CN1/C(=N/C2=O)Nc2ccc(NCCCN3CCCC3)cc21 [Example 84] | 0.042 |  | 0.018
21 | Cc1cc2cc(n1)-c1cnn(C)c1OCCC[C@@H](C1CC1)CN1/C(=N/C2=O)Nc2cc(N[C@@H](C)CCN3CCCCC3)ccc21 [Example 140] | 0.077 | < 5 | 
22 | Cc1cc2cc(n1)-c1cnn(C)c1OCCC[C@@H](C1CC1)CN1/C(=N/C2=O)Nc2cc(N[C@H](C)CN3CCCCC3)ccc21 [Example 137] | 0.085 | < 5 | 
23 | Cc1cc2cc(n1)-c1cnn(C)c1OCCC[C@@H](C1CC1)CN1/C(=N/C2=O)Nc2cc(NC3(C)CNC3)ccc21 [Example 34] | 0.016 |  | 0.014
24 | Cc1cc2cc(n1)-c1cnn(C)c1OCCC[C@@H](C1CC1)CN1/C(=N/C2=O)Nc2cc(NC[C@H]3COCCO3)ccc21 [Example 19] | 0.028 |  | 0.015
25 | Cc1cc2cc(n1)-c1cnn(C)c1OCCC[C@@H](C1CC1)CN1/C(=N/C2=O)Nc2ccc(NC(=O)CN(C)C)cc21 [Example 111] | 0.073 | < 5 | 
26 | Cc1cc2cc(n1)-c1cnn(C)c1OCCC[C@@H](C1CC1)CN1/C(=N/C2=O)Nc2cc(NC3CCC3)ccc21 [Example 79] | 0.153 |  | 0.028
27 | Cc1cc2cc(n1)-c1cnn(C)c1OCCC[C@@H](C1CC1)CN1/C(=N/C2=O)Nc2cc(N[C@@H]3CCCOC3)ccc21 [Example 18] | 0.042 |  | 0.02
28 | Cc1cc2cc(n1)-c1cnn(C)c1OCCC[C@@H](C1CC1)CN1/C(=N/C2=O)Nc2cc(N[C@@H]3CC[C@H](O)C3)ccc21 [Example 150] |  | < 5 | 
29 | Cc1cc2cc(n1)-c1cnn(C)c1OCCC[C@@H](C1CC1)CN1/C(=N/C2=O)Nc2cc(NC3COC3(C)C)ccc21 (some centres unmarked) [Example 30] | 0.046 |  | 0.03
30 | Cc1cc2cc(n1)-c1cnn(C)c1OCCC[C@@H](C1CC1)CN1/C(=N/C2=O)Nc2cc(N[C@@H]3CCOC3)ccc21 [Example 43] | 0.026 |  | 0.015
31 | Cc1cc2cc(n1)-c1cnn(C)c1OCCC[C@@H](C1CC1)CN1/C(=N/C2=O)Nc2cc(NC3CNC3)ccc21 [Example 32] | 0.013 |  | 0.01
32 | Cc1cc2cc(n1)-c1cnn(C)c1OCCC[C@@H](C1CC1)CN1/C(=N/C2=O)Nc2cc(NCCCN)ccc21 [Example 50] | 0.053 |  | 0.038
33 | Cc1cc2cc(n1)-c1cnn(C)c1OCCC[C@@H](C1CC1)CN1/C(=N/C2=O)Nc2cc(NC3CC(F)C3)ccc21 (some centres unmarked) [Example 94] |  |  | 0.75
34 | Cc1cc2cc(n1)-c1cnn(C)c1OCCC[C@@H](C1CC1)CN1/C(=N/C2=O)Nc2cc(NCCN3CCOCC3)ccc21 [Example 3] | 0.028 |  | 0.014
